biological target: T1, calcium channel (Oryctolagus cuniculus, UniProt P15381); assay: Assay for Inhibition of Nitrendipine Binding (3H-nitrendipine, heart membranes); details: 3H-nitrendipine displacement, rabbit heart membranes; Tables 6-7
T1 construct: from tissue; host or cells: rabbit heart membrane preparation
Protocol: Female, New Zealand white rabbits (1-2 kg) are sacrificed by cervical dislocation, and the heart is immediately removed, cleaned and chopped into small pieces. The tissue is homogenized in 5× times volume of 0.05M Hepes buffer, pH 7.4. The homogenate is centrifuged at 4000 g for 10 minutes, and the supernatant is re-centrifuged at 42,000×g for 90 minutes. The resulting membrane pellet is resuspended (0.7 ml/g weight) in 0.05M Hepes, pH 7.4 and stored at […] until used. Each tube of the binding assay contains ^3H-nitrendipine (0.05-0.50 nM), buffer, membranes (0.10 ml), and test compound in a total volume of 1.0 ml. After 90 minutes at 4° C., the bound nitrendipine is separated from the unbound by filtration on Whatman GF/C filters. After rinsing, the filters are dried and counted in a liquid scintillation counter.
Non-specific binding of ^3H-nitrendipine (that amount bound in the presence of excess unlabelled nitrendipine) is subtracted from the total bound to obtain specifically bound radiolabeled nitrendipine. The amount of specifically bound nitrendipine in the presence of a test compound is compared to that amount bound in the absence of a compound. A percent displacement (or inhibition) can then be calculated.

T1 sequence (P15381 whole entry, other chains not shown): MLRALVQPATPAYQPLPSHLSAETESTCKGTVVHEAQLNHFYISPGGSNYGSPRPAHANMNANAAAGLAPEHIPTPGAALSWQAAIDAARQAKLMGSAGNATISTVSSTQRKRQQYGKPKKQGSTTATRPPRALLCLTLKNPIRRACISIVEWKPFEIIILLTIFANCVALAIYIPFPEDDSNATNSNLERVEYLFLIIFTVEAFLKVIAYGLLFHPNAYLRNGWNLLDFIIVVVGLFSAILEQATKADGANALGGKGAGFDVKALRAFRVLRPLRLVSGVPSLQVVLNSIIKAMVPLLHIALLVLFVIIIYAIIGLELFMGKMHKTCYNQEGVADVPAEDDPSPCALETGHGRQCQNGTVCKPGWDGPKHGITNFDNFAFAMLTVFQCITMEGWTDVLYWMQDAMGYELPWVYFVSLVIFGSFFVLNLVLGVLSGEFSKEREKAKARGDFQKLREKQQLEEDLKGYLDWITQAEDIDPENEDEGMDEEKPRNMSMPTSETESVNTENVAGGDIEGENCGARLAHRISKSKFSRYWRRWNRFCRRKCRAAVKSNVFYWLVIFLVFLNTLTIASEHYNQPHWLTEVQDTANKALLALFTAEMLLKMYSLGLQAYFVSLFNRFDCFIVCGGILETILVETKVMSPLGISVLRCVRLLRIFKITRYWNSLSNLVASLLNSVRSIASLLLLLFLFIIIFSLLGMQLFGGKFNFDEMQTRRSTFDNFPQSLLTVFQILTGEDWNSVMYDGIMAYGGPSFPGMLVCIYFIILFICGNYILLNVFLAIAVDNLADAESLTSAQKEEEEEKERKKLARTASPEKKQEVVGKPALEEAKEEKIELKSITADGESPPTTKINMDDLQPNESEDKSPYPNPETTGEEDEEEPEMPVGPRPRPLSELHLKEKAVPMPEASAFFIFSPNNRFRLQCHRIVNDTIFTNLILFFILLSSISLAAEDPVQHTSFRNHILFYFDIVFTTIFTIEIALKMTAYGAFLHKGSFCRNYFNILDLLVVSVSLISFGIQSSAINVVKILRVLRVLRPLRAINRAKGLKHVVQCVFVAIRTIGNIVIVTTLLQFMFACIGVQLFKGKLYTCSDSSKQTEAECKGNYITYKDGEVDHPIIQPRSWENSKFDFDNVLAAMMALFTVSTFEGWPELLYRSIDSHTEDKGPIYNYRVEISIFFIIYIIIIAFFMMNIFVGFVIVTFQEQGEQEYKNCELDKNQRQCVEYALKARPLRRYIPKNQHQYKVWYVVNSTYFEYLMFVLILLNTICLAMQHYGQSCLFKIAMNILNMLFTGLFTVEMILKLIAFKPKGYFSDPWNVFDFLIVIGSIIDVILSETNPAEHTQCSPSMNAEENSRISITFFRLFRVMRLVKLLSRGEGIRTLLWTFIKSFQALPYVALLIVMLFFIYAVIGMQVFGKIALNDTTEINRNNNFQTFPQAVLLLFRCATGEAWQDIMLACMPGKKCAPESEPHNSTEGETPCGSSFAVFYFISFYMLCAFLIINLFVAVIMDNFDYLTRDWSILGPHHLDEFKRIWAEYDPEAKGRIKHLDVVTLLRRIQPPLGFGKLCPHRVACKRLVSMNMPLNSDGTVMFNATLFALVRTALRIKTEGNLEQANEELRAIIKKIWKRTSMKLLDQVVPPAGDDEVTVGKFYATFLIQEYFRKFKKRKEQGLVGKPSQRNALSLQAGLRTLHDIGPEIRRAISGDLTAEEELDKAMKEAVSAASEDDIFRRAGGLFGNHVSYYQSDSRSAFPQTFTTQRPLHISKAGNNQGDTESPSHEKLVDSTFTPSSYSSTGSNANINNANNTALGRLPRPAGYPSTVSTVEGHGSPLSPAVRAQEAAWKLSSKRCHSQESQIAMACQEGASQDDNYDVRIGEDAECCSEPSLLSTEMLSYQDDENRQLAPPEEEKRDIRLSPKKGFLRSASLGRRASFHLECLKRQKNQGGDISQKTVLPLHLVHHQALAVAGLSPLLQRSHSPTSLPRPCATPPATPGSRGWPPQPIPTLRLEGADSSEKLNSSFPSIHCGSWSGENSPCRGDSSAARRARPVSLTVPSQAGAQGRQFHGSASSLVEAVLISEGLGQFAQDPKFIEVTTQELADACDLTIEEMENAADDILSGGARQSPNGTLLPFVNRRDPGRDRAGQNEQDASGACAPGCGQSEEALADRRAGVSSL
T1 sequence (P13806 27-960 partner limits assumed, other chains not shown): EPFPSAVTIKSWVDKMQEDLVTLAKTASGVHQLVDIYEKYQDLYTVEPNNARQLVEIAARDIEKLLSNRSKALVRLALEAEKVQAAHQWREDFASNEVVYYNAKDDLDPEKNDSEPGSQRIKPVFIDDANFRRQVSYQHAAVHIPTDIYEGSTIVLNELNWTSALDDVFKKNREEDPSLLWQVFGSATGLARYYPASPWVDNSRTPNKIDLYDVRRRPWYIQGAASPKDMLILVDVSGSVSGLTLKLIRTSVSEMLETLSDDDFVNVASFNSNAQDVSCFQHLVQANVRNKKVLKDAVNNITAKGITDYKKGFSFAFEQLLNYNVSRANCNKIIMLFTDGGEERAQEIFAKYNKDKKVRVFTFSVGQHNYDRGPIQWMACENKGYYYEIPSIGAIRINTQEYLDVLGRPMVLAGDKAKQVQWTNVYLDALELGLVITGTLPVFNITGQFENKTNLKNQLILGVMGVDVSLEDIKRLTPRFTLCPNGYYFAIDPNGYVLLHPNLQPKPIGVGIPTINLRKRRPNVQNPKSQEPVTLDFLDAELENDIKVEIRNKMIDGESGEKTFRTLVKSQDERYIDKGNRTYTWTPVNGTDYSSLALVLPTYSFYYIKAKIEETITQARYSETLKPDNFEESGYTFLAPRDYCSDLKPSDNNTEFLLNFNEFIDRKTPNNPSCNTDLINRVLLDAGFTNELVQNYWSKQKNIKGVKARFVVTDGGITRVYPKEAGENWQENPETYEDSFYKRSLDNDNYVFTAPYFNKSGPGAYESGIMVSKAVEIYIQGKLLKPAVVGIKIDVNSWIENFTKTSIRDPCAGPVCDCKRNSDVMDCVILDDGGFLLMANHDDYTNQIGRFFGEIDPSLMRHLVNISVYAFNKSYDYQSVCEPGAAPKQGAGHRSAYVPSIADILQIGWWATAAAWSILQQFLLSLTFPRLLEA
T1 sequence (P13806 961-1106 partner limits assumed, other chains not shown): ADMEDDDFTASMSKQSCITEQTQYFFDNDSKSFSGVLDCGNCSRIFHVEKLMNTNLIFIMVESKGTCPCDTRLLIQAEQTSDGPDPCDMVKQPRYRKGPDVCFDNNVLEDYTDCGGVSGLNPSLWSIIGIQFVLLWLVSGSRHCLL

Row | IC50 | Structure (SMILES)
1 | 417 nM | CC1=C(C(=O)OCc2oc(=O)oc2C)C(c2c(F)cccc2Cl)C2=C(CS(=O)(=O)CCS2(=O)=O)N1 (centres unmarked) [Compound 73]
2 | 420 nM | CC1=C(C(=O)OCC(=O)OCCN(C)Cc2ccccc2)C(c2c(F)cccc2Cl)C2=C(CS(=O)(=O)CCS2(=O)=O)N1 (centres unmarked) [Compound 74, 7-methyl-9-[2-fluoro-6-chlorophenyl]-2,3,6,9-tetrahydro-1,1,4,4-tetraoxide 5H-1,4-Dithiepino[6,5-b]pyridine-8-carboxylic acid carboxy-2-(1-N-methylbenzylamine)ethyl ester]
3 | 760 nM | CC1=C(C(=O)OCCOC(=O)c2ccncc2)C(c2c(F)cccc2Cl)C2=C(CS(=O)(=O)CCS2(=O)=O)N1 (centres unmarked) [Compound 78]
4 | 768 nM | CC1=C(C(=O)OCCNC(=O)OC(C)(C)C)C(c2c(F)cccc2Cl)C2=C(CS(=O)(=O)CCS2(=O)=O)N1 (centres unmarked) [Compound 79, 5H-[1,4]dithiepino[6,5-b]pyridine-8-carboxylic acid, 9-(2-chloro-6-fluorophenyl)-2,3,6,9-tetrahydro-7-methyl-, 2-[[(1,1-dimethylethoxy)carbonyl]amino]ethyl ester, 1,1,4,4-tetraoxide]
5 | 898 nM | CC(=O)OCCOC(=O)C1=C(C)NC2=C(C1c1c(F)cccc1Cl)S(=O)(=O)CCS(=O)(=O)C2 (centres unmarked) [Compound 80]
6 | 946 nM | CC1=C(C(=O)OCCOC(=O)CNC(=O)OC(C)(C)C)C(c2c(F)cccc2Cl)C2=C(CS(=O)(=O)CCS2(=O)=O)N1 (centres unmarked) [Compound 81]
7 | 1000 nM | CC1=C(C(=O)OCCO)C(c2c(F)cccc2Cl)C2=C(CS(=O)(=O)CCS2(=O)=O)N1 (centres unmarked) [Compound 82]
8 | 1230 nM | CC1=C(C(=O)OCCOC(=O)CN(C)C)C(c2c(F)cccc2Cl)C2=C(CS(=O)(=O)CCS2(=O)=O)N1 (centres unmarked) [Compound 84]
9 | 1690 nM | CC1=C(C(=O)OCCC2CCOC2=O)C(c2c(F)cccc2Cl)C2=C(CS(=O)(=O)CCS2(=O)=O)N1 (centres unmarked) [Compound 85]
10 | 2120 nM | CC(=O)OCCCOC(=O)C1=C(C)NC2=C(C1c1c(F)cccc1Cl)S(=O)(=O)CCS(=O)(=O)C2 (centres unmarked) [Compound 86]
11 | 2260 nM | CC1=C(C(=O)OCCNC(=O)c2ccccc2)C(c2c(F)cccc2Cl)C2=C(CS(=O)(=O)CCS2(=O)=O)N1 (centres unmarked) [Compound 87]
12 | 3700 nM | CC1=C(C(=O)OCCOC(=O)C(C)(C)C)C(c2c(F)cccc2Cl)C2=C(CS(=O)(=O)CCS2(=O)=O)N1 (centres unmarked) [Compound 89]
13 | 4240 nM | CCN(CC)C(=O)COC(=O)C1=C(C)NC2=C(C1c1c(F)cccc1Cl)S(=O)(=O)CCS(=O)(=O)C2 (centres unmarked) [Compound 90]
14 | 4840 nM | CC1=C(C(=O)OCCN)C(c2c(F)cccc2Cl)C2=C(CS(=O)(=O)CCS2(=O)=O)N1 (centres unmarked) [Compound 91]
15 | 5800 nM | CC1=C(C(=O)OCCOC(=O)C(N)C(C)C)C(c2c(F)cccc2Cl)C2=C(CS(=O)(=O)CCS2(=O)=O)N1 (centres unmarked) [Compound 92]
16 | 6990 nM | CC1=C(C(=O)OCC(N)=O)C(c2c(F)cccc2Cl)C2=C(CS(=O)(=O)CCS2(=O)=O)N1 (centres unmarked) [Compound 93]
17 | 51000 nM | CC1=C(C(=O)OCCOC(=O)C(N)CCCCN)C(c2c(F)cccc2Cl)C2=C(CS(=O)(=O)CCS2(=O)=O)N1 (centres unmarked) [Compound 96]
18 | 150000 nM | CC1=C(C(=O)OCCOC(=O)CN)C(c2c(F)cccc2Cl)C2=C(CS(=O)(=O)CCS2(=O)=O)N1 (centres unmarked) [Compound 97]
19 | 316000 nM | CC1=C(C(=O)OCC(=O)O)C(c2c(F)cccc2Cl)C2=C(CS(=O)(=O)CCS2(=O)=O)N1 (centres unmarked) [Compound 98, 7-methyl-9-[2-fluoro-6-chlorophenyl]-2,3,6,9-tetrahydro-1,1,4,4-tetraoxide 5H-1,4-Dithiepino[6,5-b]pyridine-8-carboxylic acid carboxymethyl ester]

Row | Structure (SMILES) | IC50
20 | CC1=C(C(=O)OCCCO)C(c2c(F)cccc2Cl)C2=C(CS(=O)(=O)CCS2(=O)=O)N1 (centres unmarked) [Compound 83] | 1210 nM

Source: patent US20020026051A1, “Dithiepino [6,5-b]pyridines, and related compositions and methods” (priority 1999, published 2002)
